Experimental data: paper PMC10323144, “Garbage in, garbage out: how reliable training data improved a virtual screening approach against SARS-CoV-2 MPro” (Frontiers in Pharmacology, 2023)
Where two headings read alike, the source gives them in different places. Square brackets hold non-standard residues; d marks the D form. Peptide text beside a SMILES is read from it. * marks the point of attachment. NMeF = CN[CH](Cc1ccccc1)C(=O)O; NMeA = CN[CH](C)C(=O)O; tBu = CC(C)(C)*

Columns and labels:
SARS-CoV-2 MPro = SARS-CoV-2 MPro (Severe acute respiratory syndrome coronavirus 2, UniProt P0DTD1); test: MPro activity assay (de-quenching of Edans fluorescence on cleavage of a Dabcyl/Edans peptide); assay type: biochemical; settings: for Class (MPro activity class): in-house acquired data, internal screening under standardized conditions (128 compounds); for activity at 25 µM: read-out: MPro activity (%)
in vitro = settings: African green monkey
[1] = Cytotoxicity assay, WST-1; settings: human, CC50 A549 cells
[2] = tested on: SARS-CoV-2 (βCoV/KOR/KCDC03/2020); test: microbe, parasite or virus in culture; assay type: cell-based

COc1cc(OC)cc(-c2cc3cnc(N)nc3nc2N)c1 [ZVR-100]
Class (MPro activity class) (SARS-CoV-2 MPro): 0 (compounds with IC50 > 20 μM, percentage inhibition <80% at 20 µM or 50 μM, or percentage enzyme inhibition <50% at 10 µM were labelled as INACTIVE)

Cc1ccc2nc(N3C(=O)C(O)=C(C(=O)c4ccc5c(c4)OCCO5)C3c3ccccc3)sc2c1 (stereo not drawn) [ADRMC151]
Class (MPro activity class) (SARS-CoV-2 MPro): 0 (compounds with IC50 > 20 μM, percentage inhibition <80% at 20 µM or 50 μM, or percentage enzyme inhibition <50% at 10 µM were labelled as INACTIVE)

[O-][n+]1onc2ccc(/C=C/[S+]([O-])c3ccc(F)cc3)cc21 (stereo not drawn) [10d]
activity at 25 µM (SARS-CoV-2 MPro): 55.6 ± 3.4%

COc1ccc(C2C(C(=O)c3ccc4c(c3)OCCO4)=C(O)C(=O)N2c2nc3ccc(Cl)cc3s2)cc1 (stereo not drawn) [AD84]
Class (MPro activity class) (SARS-CoV-2 MPro): 0 (compounds with IC50 > 20 μM, percentage inhibition <80% at 20 µM or 50 μM, or percentage enzyme inhibition <50% at 10 µM were labelled as INACTIVE)

O=c1c2ccccc2[se]n1-c1ccccc1 [Ebselen]
CC50 (in vitro): > 50 µM | CC50 at 24 h [1]: > 100 µM | IC50 [2]: 9.7 µM | IC50 ([2]; Severe acute respiratory syndrome coronavirus 2, Vero, 24 h): 10 µM

CC(=NNC(=S)Nc1ccccc1)c1c(O)c2ccccc2oc1=O [COV19143]
Class (MPro activity class) (SARS-CoV-2 MPro): 0 (compounds with IC50 > 20 μM, percentage inhibition <80% at 20 µM or 50 μM, or percentage enzyme inhibition <50% at 10 µM were labelled as INACTIVE)

Cc1[nH]c(C(=O)Nc2ccc(C(=O)O)cc2)c(Cl)c1Cl [UL-NNS 38-1]
Class (MPro activity class) (SARS-CoV-2 MPro): 0 (compounds with IC50 > 20 μM, percentage inhibition <80% at 20 µM or 50 μM, or percentage enzyme inhibition <50% at 10 µM were labelled as INACTIVE)

Nc1ncc2cc(-c3c(F)cccc3F)c(N)nc2n1 [ZEA107]
Class (MPro activity class) (SARS-CoV-2 MPro): 0 (compounds with IC50 > 20 μM, percentage inhibition <80% at 20 µM or 50 μM, or percentage enzyme inhibition <50% at 10 µM were labelled as INACTIVE)

CC1C(=O)NC(Cc2ccc(OC(C)(C)C)cc2)C(=O)NCC(=O)N(C)C(Cc2ccccc2)C(=O)N1C (stereo not drawn) [COV19081] (cyclo(G[NMeF][NMeA]Y(tBu)); configuration not given here)
Class (MPro activity class) (SARS-CoV-2 MPro): 0 (compounds with IC50 > 20 μM, percentage inhibition <80% at 20 µM or 50 μM, or percentage enzyme inhibition <50% at 10 µM were labelled as INACTIVE)

Cc1ccc(S(=O)(=O)Nc2nc3cc(Cl)c(Oc4cccc(Cl)c4Cl)cc3[nH]2)cc1 [Cpd 31]
IC50 (SARS-CoV-2 MPro; 60 min pre-incubation, 5 μM substrate): > 25 µM | Class (MPro activity class) (SARS-CoV-2 MPro): 0 (compounds with IC50 > 20 μM, percentage inhibition <80% at 20 µM or 50 μM, or percentage enzyme inhibition <50% at 10 µM were labelled as INACTIVE)

[O-][n+]1onc2ccc(C=CSc3ccc(F)cc3)cc21 [COV19501]
Class (MPro activity class) (SARS-CoV-2 MPro): 1 (Compounds with IC50 < 10 µM or with a percentage of enzyme inhibition >50% at 10 µM were labelled as ACTIVE)

O=C(O)C(=O)Nc1nc2c(s1)CC(NC(=O)c1cc(Br)c(Br)[nH]1)CC2 (stereo not drawn) [Cpd 56]
Class (MPro activity class) (SARS-CoV-2 MPro): 0 (compounds with IC50 > 20 μM, percentage inhibition <80% at 20 µM or 50 μM, or percentage enzyme inhibition <50% at 10 µM were labelled as INACTIVE)

Cc1ccc(S(=O)(=O)/C=C/c2ccc3no[n+]([O-])c3c2)cc1 [20d]
activity at 25 µM (SARS-CoV-2 MPro): 62.6 ± 4.9%

CC(=O)OCC1OC(OC(C)=O)C(NC(=O)C(Cc2ccccc2)NC(=O)CN2CCCC(NC(=O)OC(C)(C)C)C2=O)C(OC(C)=O)C1OC(C)=O (stereo not drawn) [COV19186]
Class (MPro activity class) (SARS-CoV-2 MPro): 1 (Compounds with IC50 < 10 µM or with a percentage of enzyme inhibition >50% at 10 µM were labelled as ACTIVE)

COc1ccc(C2C(C(=O)c3ccc4c(c3)OCCO4)=C(O)C(=O)N2c2nc3ccc(OC)cc3s2)cc1 (stereo not drawn) [ADKPN160]
Class (MPro activity class) (SARS-CoV-2 MPro): 0 (compounds with IC50 > 20 μM, percentage inhibition <80% at 20 µM or 50 μM, or percentage enzyme inhibition <50% at 10 µM were labelled as INACTIVE)

COC(=O)c1ccc(-c2ccc(C3C(Oc4ccccc4)C(=O)N3Cc3ccccc3)cc2)cc1 (stereo not drawn) [Mal2]
Class (MPro activity class) (SARS-CoV-2 MPro): 0 (compounds with IC50 > 20 μM, percentage inhibition <80% at 20 µM or 50 μM, or percentage enzyme inhibition <50% at 10 µM were labelled as INACTIVE)

COc1ccc(C2C(C(=O)c3ccc4c(c3)OCCO4)=C(O)C(=O)N2c2nc3ccc(C)cc3s2)cc1 (stereo not drawn) [AD81]
Class (MPro activity class) (SARS-CoV-2 MPro): 0 (compounds with IC50 > 20 μM, percentage inhibition <80% at 20 µM or 50 μM, or percentage enzyme inhibition <50% at 10 µM were labelled as INACTIVE)

COc1ccc(C2C(C(=O)c3ccc4c(c3)OCCO4)=C(O)C(=O)N2c2nc3ccccc3s2)cc1 (stereo not drawn) [ADKPN165]
Class (MPro activity class) (SARS-CoV-2 MPro): 0 (compounds with IC50 > 20 μM, percentage inhibition <80% at 20 µM or 50 μM, or percentage enzyme inhibition <50% at 10 µM were labelled as INACTIVE)

Nc1cccc(C(=O)Nc2nc3c(s2)CC(NC(=O)c2cc(Br)c(Br)[nH]2)CC3)c1 (stereo not drawn) [Cpd 46]
Class (MPro activity class) (SARS-CoV-2 MPro): 0 (compounds with IC50 > 20 μM, percentage inhibition <80% at 20 µM or 50 μM, or percentage enzyme inhibition <50% at 10 µM were labelled as INACTIVE)

COC(=O)CN1C(=O)C(C2C(=O)OCC2c2ccccc2)C1C=Cc1ccccc1 (stereo not drawn) [CMD111]
Class (MPro activity class) (SARS-CoV-2 MPro): 0 (compounds with IC50 > 20 μM, percentage inhibition <80% at 20 µM or 50 μM, or percentage enzyme inhibition <50% at 10 µM were labelled as INACTIVE)
